For 15 molecules, EC50 results are on record in patent publication US8865756B2, “Inhibitors of HCV NS5A” (Presidio Pharmaceuticals, Inc., priority 2008, dated 2014).

The structures appear in SMILES notation.

The assay deals with HCV 1b_Huh-Luc/Neo-ET cell line persistently expressing a bicistronic genotype 1b replicon in Huh 7 cells. Briefly: HCV replicon assay (luciferase readout). It counts as cell-based. The following applies: Hepatitis C virus, Huh-7, 72 h, read-out: Inhibition of HCV genotype 1b. The method, then: Biological activity of the compounds of the invention was determined using an HCV replicon assay. The HCV 1b_Huh-Luc/Neo-ET cell line persistently expressing a bicistronic genotype 1b replicon in Huh 7 cells was obtained from ReBLikon GMBH. This cell line was used to test compound inhibition using luciferase enzyme activity readout as a measurement of compound inhibition of replicon levels.
On Day 1 (the day after plating), each compound is added in triplicate to the cells. Plates incubated for 72 h prior to running the luciferase assay. Enzyme activity was measured using a Bright-Glo Kit (cat. number E2620) manufactured by Promega Corporation. The following equation was used to generate a percent control value for each compound. % Control=(Average Compound Value/Average Control)*100
The EC50 value was determined using GraphPad Prism and the following equation: Y=Bottom+(Top−Bottom)/(1+10^((Log IC50−X)*HillSlope))
EC50 values of compounds are determined several times in the replicon assay.
Example compounds of the disclosed invention are illustrated in Tables 1-14 attached as appendices. The tables show inhibitory activity of many of the example compounds with respect to HCV 1b. […] The tables further provide mass spectrometry results for the synthesized example compounds.
In general terms: In antiviral work, replicon cells carry a viral genome segment that copies itself.
With `O=C(N[C@@H](C(=O)N1CCC[C@H]1c1ncc(-c2ccc(C#Cc3ccc(-c4cnc([C@@H]5CCCN5C(=O)[C@H](NC(=O)C5CC5)c5ccccc5)[nH]4)cc3)cc2)[nH]1)c1ccccc1)C1CC1` [Compound 153], the EC50 is < 1 nM.
On to `C[C@@H](NC(=O)C1CC1)C(=O)N1CCC[C@H]1c1ncc(-c2ccc(C#Cc3ccc(-c4cnc([C@@H]5CCCN5C(=O)[C@@H](C)NC(=O)C5CC5)[nH]4)cc3)cc2)[nH]1` [Compound 154], for which the EC50 is 1 to 9.9 nM.
Consider `CC(C)[C@@H](NC(=O)C1CC1)C(=O)N1CCC[C@H]1c1ncc(-c2ccc(C#Cc3ccc(-c4cnc([C@@H]5CCCN5C(=O)[C@H](NC(=O)C5CC5)C(C)C)[nH]4)cc3)cc2)[nH]1` [Compound 155], for which the EC50 lay within 1 to 9.9 nM.
Take `COC(=O)N[C@@H](C(=O)N1CCC[C@H]1c1ncc(-c2ccc(C#Cc3ccc(-c4cnc([C@@H]5CCCN5C(=O)[C@H](NC(=O)OC)c5ccccc5)[nH]4)cc3)cc2)[nH]1)c1ccccc1` [Compound 156]: the EC50 is < 1 nM.
With `O=C([C@H](O)c1ccccc1)N1CCC[C@H]1c1ncc(-c2ccc(C#Cc3ccc(-c4cnc([C@@H]5CCCN5C(=O)[C@H](O)c5ccccc5)[nH]4)cc3)cc2)[nH]1` [Compound 157], the EC50 is < 1 nM.
Next, `CC(=O)N[C@@H](C(=O)N1CCC[C@H]1c1ncc(-c2ccc(C#Cc3ccc(-c4cnc([C@@H]5CCCN5C(=O)[C@H](NC(C)=O)c5ccccc5)[nH]4)cc3)cc2)[nH]1)c1ccccc1` [Compound 158]: < 1 nM.
Take `CN1CCN(C(=O)N[C@@H](C(=O)N2CCC[C@H]2c2ncc(-c3ccc(C#Cc4ccc(-c5cnc([C@@H]6CCCN6C(=O)[C@H](NC(=O)N6CCN(C)CC6)c6ccccc6)[nH]5)cc4)cc3)[nH]2)c2ccccc2)CC1` [Compound 159]: the EC50 was < 1 nM.
Next, `CN(C)[C@@H](C(=O)N1CCC[C@H]1c1ncc(-c2ccc(C#Cc3ccc(-c4cnc([C@@H]5CCCN5C(=O)[C@@H](c5ccccc5)N(C)C)[nH]4)cc3)cc2)[nH]1)c1ccccc1` [Compound 160]: < 1 nM; `CN(C)C(=O)N[C@@H](C(=O)N1CCC[C@H]1c1ncc(-c2ccc(C#Cc3ccc(-c4cnc([C@@H]5CCCN5C(=O)[C@H](NC(=O)N(C)C)c5ccccc5)[nH]4)cc3)cc2)[nH]1)c1ccccc1` [Compound 161]: < 1 nM.
In the case of `CNC(=O)N[C@@H](C(=O)N1CCC[C@H]1c1ncc(-c2ccc(C#Cc3ccc(-c4cnc([C@@H]5CCCN5C(=O)[C@H](NC(=O)NC)c5ccccc5)[nH]4)cc3)cc2)[nH]1)c1ccccc1` [Compound 162], the EC50 was < 1 nM.
In the case of `CC(C)(C)OC(=O)N[C@@H](C(=O)N1CCC[C@H]1C(=O)Nc1ccc(C#Cc2ccc(-c3cnc([C@@H]4CCCN4C(=O)[C@H](NC(=O)OC(C)(C)C)c4ccccc4)[nH]3)cc2)cc1)c1ccccc1` [Compound 163], the EC50 is < 1 nM.
For the molecule `CC(C)[C@H](NC(=O)OC(C)(C)C)C(=O)N1CCC[C@H]1c1ncc(-c2ccc(C#Cc3ccc(-c4cnc([C@@H]5CCCN5C(=O)[C@@H](NC(=O)OC(C)(C)C)C(C)C)[nH]4)cc3)cc2)[nH]1` [Compound 165], the EC50 is 10 to 999 nM.
Next, `O=C(N[C@@H](C(=O)N1CCC[C@H]1C(=O)Nc1ccc(C#Cc2ccc(-c3cnc([C@@H]4CCCN4C(=O)[C@H](NC(=O)C4CC4)c4ccccc4)[nH]3)cc2)cc1)c1ccccc1)C1CC1` [Compound 166]: < 1 nM; `C[C@@H](NC(=O)[C@@H]1CCCN1C(=O)[C@H](NC(=O)OC(C)(C)C)c1ccccc1)c1ccc(C#Cc2ccc(-c3cnc([C@@H]4CCCN4C(=O)[C@H](NC(=O)OC(C)(C)C)c4ccccc4)[nH]3)cc2)cc1` [Compound 167]: 1 to 9.9 nM.
Next, `C[C@@H](NC(=O)[C@@H]1CCCN1C(=O)[C@H](NC(=O)C1CC1)c1ccccc1)c1ccc(C#Cc2ccc(-c3cnc([C@@H]4CCCN4C(=O)[C@H](NC(=O)C4CC4)c4ccccc4)[nH]3)cc2)cc1` [Compound 168]: < 1 nM.
